Results: patent publication US10076511B2, “Bisamide derivative of dicarboxylic acid as an agent for stimulating tissue regeneration and recovery of diminished tissue function” (TREAMID GmbH, priority 2015, dated 2018)

Key:
[1] = tested on: precursors for spermatogenic tissue; test: Growth of colonies from CFU-Sp with in vitro addition of Treamid; assay type: cell-based, rat; details: Cells of the testes of intact rats
Procedure: The precursor cells of the studied organ were cultured by using an underlayer (represented by the cells of the adherent fraction) prepared in advance in a 96-well plate, as described above.
Further, a nonadherent cell fraction of spermatogenic tissue was isolated from the two groups of animals (intact animals and animals received Paclitaxel intravenously 24 hours prior to the study) and was transferred to the resulting underlayer in complete culture medium (80% DMEM, 20% FCS, L-glutamine, antibiotics, heparin) at a concentration of 2×10^5/ml. Prior to the incubation in the complete culture medium, Treamid was added at a concentrations of 1 ng/ml, 3 ng/ml, 10 ng/ml, 30 ng/ml, 100 ng/ml, 300 ng/ml and 1000 ng/ml. The incubation lasted for 7 days in a CO2 incubator at 37° C., 5% CO2 and 100% air humidity. After the incubation, the number of colony-forming units, spermatogenic (CFU-Sp)—clusters of more than 30 cells of round shape and of various diameters—was counted.
The effectiveness of Treamid was estimated by a significant increase in the number of cells giving rise to CFU-Sp in the culture with the addition of the test compound, compared to that in the control.
The direct action of Treamid on the precursors for spermatogenic tissue was studied in vitro by addition of Treamid to the cell culture at concentrations of 1, 30, 100, and 1000 ng/ml.

Wistar rats = test: Pair-test of sexual behavior, rats of late reproductive (14 months) and presenile (19 months) age; assay type: in vivo, rat; details: for EN (the number of ejaculations) / LFM (latency until the first mount) / MN (the number of mounts): 14-month rats
Procedure: Erectile dysfunction was simulated by using animals of late and senile reproductive age (14-19 months). Suppression of sexual motivation was simulated by using animals of late reproductive age (14 months).
Experiments on studying the effect of Treamid on copulatory activity were carried out on 76 Wistar rats (14 months and 19 months of age). Treamid was administered intragastrically for 14 days at a dose of 5 mg/kg. Reference drug Sildenafil (100 mg, PFIZER PGM, France) was also administered intragastrically, which corresponded to clinical use, at a dose of 3 mg/kg twice a week. The sexual activity was estimated by the pair-test of sexual behavior. For this purpose female rats in the estrus stage caused by a preliminary 4-fold injection of the Synestrel were involved in the experiment. The effectiveness of Treamid was estimated by the following indices: latency until the first mating attempt (LFM), the number of mating attempts (MN), and the number of ejaculations (EN). The obtained data were compared with those of the same animals before the administration of Treamid (the first test) and with the data in the control group (the second test).

male C57BL/6 mice [2] = test: Metabolic syndrome model in mice (streptozotocin + high-fat diet): pancreas, glucose, testosterone; assay type: in vivo, mouse
Procedure: Metabolic disorders were simulated as follows: on Day 2 after birth, male C57Bl/6 mice were injected with streptozotocin at a dose of 200 mg/kg once, subcutaneously in the withers area, and the volume of the injected solution was 30 μl. From week 4 after birth, the animals were transferred to a diet high in fat. For this purpose, the used feed was enriched with heavy saturated fats (30% fat) (Siff EF R/M with 30% Fat Cat No. E15116-34, Germany). The duration of feeding with a high-fat feed was 42 days (from Day 28 to Day 70 of the experiment). […] The control animals received the equivalent volume of a solvent (2% starch mucus), instead of the test compound.
On Days 28, 35, 42, 49, 56, 63, and 70 of the study, blood glucose was determined. The blood glucose level was determined with a glucometer meter (Accu-Chek Performs Nanu (“Roche Diagnostes GmbH”, Germany). Blood glucose was measured in animals after 16-hour feed deprivation; all subsequent measurements of the glucose level were also performed after 16-hour feed deprivation.
On Day 70 day, animals were euthanized in a CO2 chamber. Then, the serum free testosterone level was studied, and the morphological examination of the pancreas was performed.
The level of free testosterone in the serum was evaluated by enzyme immunoassay according to the protocol of manufacturer's test system.
For morphological study, a part of the pancreas adjacent to the spleen was fixed in 10% formalin and poured into paraffin according to the standard method.
Deparaffined sections of the gland were stained with hematoxylin and eosin. On the sections, the area of 10 serial islets of Langerhans was determined by graphic computer analysis, and the total number of cells and the number of pyknotized cells were counted therein. Then, the number of cells per unit islet area and the percentage of the pyknotized cells were calculated. Inflammatory cells (neutrophils, lymphocytes, macrophages) in the pancreatic tissue and their composition were studied by staining of the histological sections with hematoxylin-eosin.

male C57BL/6 mice [3] = test: Bleomycin-induced pulmonary fibrosis model; assay type: in vivo, mouse; details: Day 21; 10 mg/kg
Procedure: Toxic damage of the lung alveolar epithelium causing pulmonary fibrosis was simulated by intra-tracheal administration of the cytostatic bleomycin once in a dose of 80 μg/mouse in 30 μl of physiological saline. Anesthesia during the operation was achieved by using inhalation ether. The surgical field was disinfected with a 70% ethanol solution and hair on this field was removed. The skin, subcutaneous tissue and own fascia of the neck were dissected along the middle line of the neck. The muscles were moved apart on the ventral side of the trachea by the method of blunt separation of tissues. Injection of bleomycin was made on inhalation along the airflow by a Hamilton syringe. After suturing the wound, the surgical field was treated with an antiseptic. The administration of bleomycin was taken as Day 0 of the experiment.
The effectiveness of Treamid and the reproduction of pulmonary fibrosis were estimated by the number and intensity of the synthesis of connective tissue in the lungs, as well as by the histoarchitectonics of the lungs.
Thus, the staining of histological preparations of the lungs of C57BL/6 mice with picrofuxin according to Van Gieson and subsequent visualization of the connective tissue made it possible to register a significant proliferation of the connective tissue, mainly around the vessels and bronchioles (FIG. 5, Table 36). In addition, lung homogenates of the animals of the intact control and pathological control were investigated by enzyme immunoassay.

[4] = First test, before administration of drugs
[5] = Second test, after 14-day administration course, Treamid 5 mg/kg, Sildenafil 3 mg/kg
[6] = 19-month rats, First test (before administration of drugs)
[7] = 19-month rats, Second test (after 14-day administration course), Treamid 5.0 mg/kg
[8] = Day 70, Treamid (1 mg/kg), n = 8

## O=C(CCCC(=O)NCCc1ncc[nH]1)NCCc1ncc[nH]1 [Treamid]
[1]; Treamid 1 ng/ml
  CFU-Sp per 4 × 10^4 nuclears: 6.83 ± 0.48 per 4 × 10^4 nuclears
[1]; Treamid 30 ng/ml
  CFU-Sp per 4 × 10^4 nuclears: 6.0 ± 0.36 per 4 × 10^4 nuclears
[1]; Treamid 100 ng/ml
  CFU-Sp per 4 × 10^4 nuclears: 8.50 ± 0.42 per 4 × 10^4 nuclears
[1]; Treamid 1000 ng/ml
  CFU-Sp per 4 × 10^4 nuclears: 11.67 ± 1.81 per 4 × 10^4 nuclears
Wistar rats; [4]
  EN (the number of ejaculations): 0.00 ± 0.00
  LFM (latency until the first mount): 559.08 ± 93.55
  MN (the number of mounts): 1.42 ± 0.50
Wistar rats; [5]
  EN (the number of ejaculations): 0.60 ± 0.22⋄*
  MN (the number of mounts): 6.90 ± 1.88⋄
Wistar rats; Second test, after 14-day administration course, Treamid 5 mg/kg, Sildenafil 3 mg/kg intragastrically
  LFM (latency until the first mount): 364.80 ± 127.66
Wistar rats; [6]
  EN (abs.): 0.00 ± 0.00 abs.
  LFM: 310.27 ± 94.59 s
  MN (abs.): 4.27 ± 1.04 abs.
Wistar rats; [7]
  EN: 0.20 ± 0.13⋄*
  LFM: 297.20 ± 117.04 s
  MN (abs.): 7.90 ± 1.45⋄ abs.
Male C57BL/6 mice [2]; Day 28 (before Treamid, given Day 49-70)
  Serum glucose concentration: 5.36 ± 1.28 mmol/L
Male C57BL/6 mice [2]; Day 35 (before Treamid, given Day 49-70)
  Serum glucose concentration: 4.21 ± 1.81 mmol/L
Male C57BL/6 mice [2]; Day 42 (before Treamid, given Day 49-70)
  Serum glucose concentration: 12.75 ± 2.6 mmol/L
Male C57BL/6 mice [2]; Day 49, Treamid 10 mg/kg intragastrically Day 49-70
  Serum glucose concentration: 13.59 ± 2.41 mmol/L
Male C57BL/6 mice [2]; Day 56, Treamid 10 mg/kg intragastrically Day 49-70
  Serum glucose concentration (mmol/L): 12.91 ± 4.48*• mmol/L
Male C57BL/6 mice [2]; Day 63, Treamid 10 mg/kg intragastrically Day 49-70
  Serum glucose concentration (mmol/L): 14.47 ± 3.21*• mmol/L
Male C57BL/6 mice [2]; Day 70, Treamid 10 mg/kg
  Free testosterone (pg/ml), serum: 3.70 ± 0.46 pg/mL
Male C57BL/6 mice [2]; Day 70, Treamid 10 mg/kg intragastrically Day 49-70
  Serum glucose concentration: 21.82 ± 5.83 mmol/L
Male C57BL/6 mice [2]; [8]
  % of pyknotized cells in the islet of Langerhans: 0.99 ± 0.06• %
  Area of an islet (pixel): 743399 ± 21134*• pixel
  The number of islets in 30 vision fields: 7.4 ± 0.37•
Male C57BL/6 mice [3]
  Hydroxyproline (μg/ml) in the lungs: 27.97 ± 2.2 µg/mL
  The content of connective tissue (%) in the lungs: 1.17 ± 0.20• %
  Total collagen (mg/ml) in the lungs: 23.4 ± 1.7 mg/mL
  Type I collagen (ng/ml) in the lungs: 201.6 ± 18 ng/mL
